Experimental findings from ChEMBL document CHEMBL5113380, “Functionalized quinoxalinones as privileged structures with broad-ranging pharmacological activities” (Eur J Med Chem, 2022) are described below.

The nature of series [1]: Drug metabolism in human liver microsomes. In kind it is ADME, Microsome. To be noted: read-out: Drug metabolism.
The target of another series is Topoisomerase IV (Staphylococcus aureus, UniProt P0C1S7+P0C1U9). The experiment in a line: Inhibition of Staphylococcus aureus topoisomerase 4. In kind it is protein-complex assay.
Series [2] addresses Voltage-gated inwardly rectifying potassium channel KCNH2 (Homo sapiens, UniProt Q12809). The experiment in a line: Inhibition of hERG. Format: toxicity. For orientation: Block of hERG is tested as a sign of cardiac risk.
Series [3] concerns Staphylococcus aureus. The experiment in a line: Antibacterial activity against methicillin-resistant Staphylococcus aureus. Format: functional.
Series [4] relates to Staphylococcus aureus. Description: Antibacterial activity against methicillin-sensitive Staphylococcus aureus. In kind it is functional.
A further series has as its system HCT-116. The experiment in a line: Antiproliferative activity against human HCT-116 cells after 48 hrs by MTT assay. In kind it is functional, cell-based. To be noted: HCT-116, 48 h.
For series [5], the target named is Bromodomain-containing protein 4 (Homo sapiens, UniProt O60885). The experiment in a line: Inhibition of BRD4 (unknown origin) using histone-H4 as substrate incubated for 15 mins and measured after 1 hr by AlphaScreen assay.
A further series deals with CT26. The experiment in a line: Antitumor activity against mouse CT26 cells xenografted in C57BL/6 mouse assessed as tumor suppression rate at 20 mg/kg, ip administered for 14 days. Format: functional. To be noted: time 14 day.
In the next series the test system is MV4-11. The experiment in a line: Antiproliferative activity against human MV4-11 cells. In kind it is functional, cell-based.
For series [6], the target named is Glutamate receptor ionotropic AMPA (Homo sapiens, UniProt P42261+P42262+P42263+P48058). The experiment in a line: Agonist activity at AMPA receptor (unknown origin). In kind it is protein-complex assay.
A further series relates to Hepatitis C virus. The experiment in a line: Antiviral activity against HCV. In kind it is functional, organism-based, Hepacivirus hominis.
The subject of series [7] is Human immunodeficiency virus 1. The experiment in a line: Antiviral activity against HIV1. In kind it is functional, organism-based.
The next series relates to Pichia kudriavzevii. Description: Antifungal activity against Candida krusei. In kind it is functional.
The test system of a further series is Escherichia coli. Description: Antibacterial activity against Escherichia coli. Format: functional.
The test system of series [8] is Candida. Description: Antifungal activity against Candida species isolate 1. In kind it is functional.
The subject of the next series is Candida tropicalis. Description: Antifungal activity against Candida tropicalis. Format: functional.
In series [9] the test system is Mycobacterium tuberculosis. The experiment in a line: Antimycobacterial activity against Mycobacterium tuberculosis at […]. To be noted: dose 12.5 µg/ml. Format: functional.
In series [10] the test system is Candida. Description: Antifungal activity against Candida species isolate 2. Format: functional.
Series [11] has as its system Candida. Description: Antifungal activity against Candida species isolate 3. Format: functional.
Another series relates to Candida parapsilosis. The experiment in a line: Antifungal activity against Candida parapsilosis. In kind it is functional. To be noted: Lodderomyces parapsilosis.
In the next series the test system is Nakaseomyces glabratus. The experiment in a line: Antifungal activity against Candida glabrata. Format: functional.
A further series relates to Candida albicans. The experiment in a line: Antifungal activity against Candida albicans. In kind it is functional.
Series [12] is described as follows: Inhibition of lipid peroxidation at 10 uM by measuring MDA concentration. The arrangement: scale not given: the % may be the effect or the level left. Format: functional.
Series [13] is described as follows: Inhibition of ALR1 (unknown origin) relative to control. The arrangement: concentration or dose not given beside the values. To be noted: Homo sapiens; concentration not given here.
Series [14] is described as follows: Antioxidant activity assessed as DPPH radical scavenging activity at 50 uM. In kind it is functional. A general note: Loss of DPPH colour is used to gauge radical scavenging.
Series [15] can be described thus: Antioxidant activity assessed as DPPH radical scavenging activity at 100 uM. Format: functional.
Series [16] is described as follows: Inhibition of ALR2 (unknown origin). Details: species or system Homo sapiens.
A short description of series [17]: Inhibition of lipid peroxidation at 100 uM by measuring MDA concentration. In kind it is functional. Details: Activity: scale not given: the % may be the effect or the level left.
Series [18] addresses 72 kDa type IV collagenase (Homo sapiens, UniProt P08253). Description: Inhibition of MMP-2 (unknown origin) using succinylated gelatin as substrate incubated for 30 mins and measured by gelatin zymography method.
Series [19] deals with Human immunodeficiency virus type 1 reverse transcriptase (Human immunodeficiency virus 1, UniProt Q72547). Description: (§1) Inhibition of HIV1 reverse transcriptase.
In series [20] the target is Human immunodeficiency virus type 1 reverse transcriptase (Human immunodeficiency virus 1) (UniProt Q72547). The series is described as §1.
The subject of series [21] is HepG2. The experiment in a line: Antiproliferative activity against human HepG2 cells. In kind it is functional, cell-based.
Series [22] deals with HepG2. Description: Induction of apoptosis in human HepG2 cells assessed as fold increase in caspase-9 protein level. Format: functional.
Series [23] concerns HepG2. Description: Cell cycle arrest in human HepG2 cells assessed as fold increase in accumulation at G2/M phase. In kind it is functional.
For series [24], the system named is HepG2. Description: Induction of apoptosis in human HepG2 cells assessed as fold increase in BAX/BCL-2 protein level. In kind it is functional.
The target in series [25] is Vascular endothelial growth factor receptor 2 (Homo sapiens, UniProt P35968).
The test system of series [26] is HepG2. The experiment in a line: Induction of apoptosis in human HepG2 cells assessed as fold increase in caspase-3 protein level. In kind it is functional.
In the next series the test system is MCF7. The experiment in a line: Antiproliferative activity against human MCF7 cells. Format: functional, cell-based.
The subject of the next series is RAW264.7. Description: Anti-inflammatory activity in mouse RAW264.7 cells assessed as inhibition of LPS-induced NO production at 10 uM after 24 hrs by Griess reagent-based assay. Format: functional. The arrangement: scale not given: the % may be the effect or the level left. (The Griess reaction detects nitrite, a stable product of nitric oxide.)
The test system of the next series is Mus musculus. The experiment in a line: Antiinflammatory activity against mouse assessed as reduction in carragenan-induced paw edema at 25 mg/kg,po treated 1 hr prior to carrageenan challenge. Format: functional. Details: scale not given: the % may be the effect or the level left.
A further series relates to Rattus norvegicus. The experiment in a line: Ulcerogenic activity in male albino rat assessed as ulceration at 25 mg/kg, po. In kind it is functional.
Series [27] can be described thus: Binding affinity to benzodiazepine receptor (unknown origin). Details: species or system Homo sapiens.

Converted amounts (≈) assume the structure as drawn.

What is called IC50 is the concentration at which inhibition is half-maximal. As usually defined, the MIC is the least concentration at which growth counts as inhibited. By EC50 is commonly meant the concentration that produces a half-maximal response. Broadly, the inhibition is the change of the read-out against control, counted positive when it falls. The IC90 is the concentration needed for an effect of 90%. In general, Ki refers to a dissociation constant, usually derived from enzyme kinetics or from competition with a known ligand.

Turning to `O=c1c(-c2cccc([N+](=O)[O-])c2)nc2ccccc2n1Cc1ccccc1`, the metabolised in series [1] was under 40%.

As for `COc1ccc2nccc(CC[C@H]3OC[C@H](NC(=O)c4ccc5c(c4)OCCO5)CO3)c2c1`, the values for the IC50 (against Topoisomerase IV; in series [2]) were over 200 µM and over 100 µM, respectively. Moreover, the minimal inhibitory concentration (MIC) against Staphylococcus aureus [3] and in the series on Staphylococcus aureus [4] was 1 µg/mL (≈ 2.22 µM) in each case.

For the compound `Cc1noc(C)c1-c1ccc2c(c1)C(c1ccccc1)N(Cc1cn(CCOCCOCCOCCn3cc(CC4C(=O)N(C)c5ccc(-c6c(C)noc6C)cc5N4c4ccccc4)nn3)nn1)C(=O)N2C` (stereo not drawn), the IC50 with HCT-116 amounted to 162 nM; in [5] it was 7.7 nM. Further, the Activity in the series with CT26 is 56.1%.

`CCC1C(=O)Nc2ccc(-c3c(C)noc3C)cc2N1Cc1ccccc1` (stereo not drawn): the IC50 in series [5] stood at 73 nM; in the series on MV4-11, 253 nM.

As for `N[C@@H](Cn1c(=O)c(=O)[nH]c2ccccc21)C(=O)O`, the EC50 in series [6] was determined as 3 µM.

In turn, `CCC(CC)N(C)c1cc2ncc(=O)[nH]c2cc1Nc1nc(-c2ccccc2)cs1` yielded an EC50 with Hepatitis C virus of 1270 nM.

Turning to `O=C1CN(S(=O)(=O)c2c(Cl)cccc2Cl)c2cc(Cl)ccc2N1`, in [7], the half-maximal effective concentration (EC50) came out at 1090 nM.

Regarding `O=c1[nH]c2cc([N+](=O)[O-])ccc2nc1CBr`, the minimum inhibitory concentration (MIC) in the series on Pichia kudriavzevii was 62.5 µg/mL (≈ 220 µM); against Escherichia coli, 125 µg/mL (≈ 440 µM); in the series with Candida [8], 15.6 µg/mL (≈ 54.9 µM); in the series with Candida tropicalis, 31.2 µg/mL (≈ 110 µM); against Candida [10], 31.2 µg/mL (≈ 110 µM); against Candida [11], 15.6 µg/mL (≈ 54.9 µM). The MIC against Candida parapsilosis turned out to be 15.6 µg/mL (≈ 54.9 µM); with Nakaseomyces glabratus it was 15.6 µg/mL (≈ 54.9 µM); against Candida albicans, 8 µg/mL (≈ 28.2 µM). This compound also had an Activity in series [9] of 15%.

Consider `O=C(O)Cn1c(=O)c(Oc2cc(O)cc(O)c2)nc2ccc(Cl)cc21`, for which the Activity was 26.6% in [12], 83.7% in series [14], 91.3% in series [15] and 55.3% in [17]. The compound also had an inhibition in [13] of 38.2%. In series [16], the concentration for half-maximal inhibition (IC50) is 566 nM.

Compound `Cc1ccc(NC(=O)C(Cc2ccccc2)NC(=O)Cn2c(=O)c(C)nc3ccccc32)cc1` (stereo not drawn) returned an IC50 in series [18] of 10.5 µM.

For the compound `CCOC(=O)N1c2ccccc2NC(=O)[C@]1(C#CC1CC1)C(F)(F)F`, the midpoint of inhibition in series [19], the IC50, lay at 45 nM. This compound also came in with an IC90 in [20] of 4.8 nM.

`O=C(Cn1c(=O)c2nncn2c2ccccc21)Nc1ccc(C(=O)Nc2ccc(Cl)cc2)cc1`: the values for the IC50 (with HepG2 [21]; in series [25]; in the series on MCF7) were 4.1 µM, 3.4 nM and 7.2 µM, respectively. Further, the “fold change (FC)” value is given as 1.82 in the series on HepG2 [22], 2.14 in the series with HepG2 [23], 3.81 in the series on HepG2 [24] and 1.96 with HepG2 [26].

In the case of `Cc1cccc(Oc2nn3c(C(N)=O)nnc3c3ccccc23)c1`, the Activity in the series with RAW264.7 is 10.31%; in the series on Mus musculus, 42.81%; in the series with Rattus norvegicus, 20%.

As to `Oc1nc2ccc(Cl)cc2n2nc(-c3ccccc3F)nc12`, the affinity in series [27] corresponds to a Ki of 2.9 nM.
